From PMC12395388 (Regulatory toxicology and pharmacology : RTP, 2024)
Read-outs that look alike come from different tables or passages of the source.

Tests used:
Ames tester strains = conditions: cited from earlier work; for Ames response (all S9-mediated except where noted): published/posted results, ref representative Ames references of Table 2
[1] = test system: E. coli WP2 uvrA (pKM101); assay: Preincubation Ames test, strain WP2 uvrA; format: cell-based, Escherichia coli; conditions: for Effectiveness of time of preincubation for most effective S9: strain WP2 uvrA (pKM101), 30 vs 60 min; for Mutagenic response in WP2 uvrA (pKM101): any activation condition and preincubation time
[2] = ref IARC (https://monographs.iarc.who.int/agents-classified-by-the-iarc/); cited from earlier work
[3] = test system: Salmonella typhimurium TA100; assay: Preincubation Ames test, strain TA100; format: cell-based; conditions: for Effectiveness of time of preincubation for most effective S9: strain TA100, 30 vs 60 min; for S9-mediated mutagenicity in TA100: with S9 activation
[4] = test system: Salmonella typhimurium TA1535; assay: Preincubation Ames test, strain TA1535; format: cell-based; conditions: for Effectiveness of time of preincubation for most effective S9: 30 vs 60 min; for Ames response when tested as an aqueous suspension: 60 min preincubation, TA1535; for Direct-acting mutagenicity in TA1535: no exogenous metabolic activation (no S9); for S9-mediated mutagenicity in TA1535: with S9 activation; for Mutagenic response in TA1535: any activation condition and preincubation time
[5] = parent drug with nitrite; ref Ozhan and Alpertunga, 2003; cited from earlier work
[6] = Solubility in Ames test vehicles; format: physicochemical
[7] = PC1 most potent, PC5 least potent; ref FDA, 2024a; cited from earlier work
[8] = ref Wogan et al., 1975, cited from earlier work
[9] = published by FDA as of September 4, 2024, ref FDA, 2024a; cited from earlier work
Drosophila = conditions: cited from earlier work; for Recombination in Drosophila: ref Vogel and Nivard, 1993
yeast = conditions: cited from earlier work
[10] = test system: CHO, V79, L5178Y/Tk+/−, TK6, HepaRG cells; conditions: cited from earlier work
[11] = test system: Salmonella typhimurium tester strains TA98, TA100, TA1535, and TA1537, and Escherichia coli strain WP2 uvrA (pKM101); assay: Preincubation Ames test, five tester strains; format: cell-based; conditions: for Specificity for G:C or A:T target tester strains: G:C target: TA98, TA100, TA1535, TA1537, A:T target: WP2 uvrA (pKM101)
E. coli WU3610 = conditions: ref Elespuru and Lijinsky, 1976; cited from earlier work
[12] = ref as given in Table 2 Notes (Kerklaan et al., 1981; Zeiger et al., 1972); cited from earlier work
[13] = species as in value; ref as given in Table 2 Notes; cited from earlier work
[14] = test system: Salmonella typhimurium TA1537; assay: Preincubation Ames test, strain TA1537
[15] = in vivo; cited from earlier work
[16] = ref Larimer et al., 1980, Mehta and Von Borstel, 1984
[17] = cell lines as named in the value, ref as given in Table 2 Notes
[18] = listed as 1-Methyl-4-nitrosopiperizine
[19] = listed as 1-methyl-4-nitrosopiperizine
[20] = listed as N-nitroso-methylphenylamine

## CCCCN(CCCC)N=O [SM-9, N,N-Dibutylnitrous amide]
Ames tester strains
  Ames response (all S9-mediated except where noted): Positive
[1]
  Effectiveness of time of preincubation for most effective S9: 60min ≥30min
[2]
  IARC classification: Group 2B
[3]
  Effectiveness of time of preincubation for most effective S9: 30min ≥60min
[4]; strain TA1535
  Effectiveness of time of preincubation for most effective S9: 60min = 30min

## CNCCC(Oc1ccc(C(F)(F)F)cc1)c1ccccc1 (centres unmarked) [Fluoxetine]
[5]
  Genotoxicity under nitrosating conditions: genotoxic under nitrosating conditions

## O=NN1CCN(c2cc3c(cc2F)c(=O)c(C(=O)O)cn3C2CC2)CC1 [NDSRI-24, 1-Cyclopropyl-6-fluoro-7-(4-nitrosopiperazin-1-yl)-4-oxoquinoline-3-carboxylic acid]
[6]
  Solubility in test vehicles: poorly soluble in all vehicles

## Nc1nc2ncc(CN(N=O)c3ccc(C(=O)NC(CCC(=O)O)C(=O)O)cc3)nc2c(=O)[nH]1 (centres unmarked) [NDSRI-28, 2-[[4-[(2-Amino-4-oxo-3 H-pteridin-6-yl)methyl-nitrosoamino)benzoyl]amino]pentanedioic acid]
Ames tester strains
  Ames response (all S9-mediated except where noted): Positive
[7]
  CPCA Potency Category (PC): PC4
[8]
  Lung tumors in neonatal mouse cancer bioassay: Weak positive for lung tumors in neonatal mouse assay ([Wogan et al., 1975])
[8]; listed as N-nitroso-folic acid
  Lung tumors in neonatal mouse cancer bioassay: induced lung tumors
[9]
  AI limit: 1500 ng/day
[4]
  Ames response when tested as an aqueous suspension: d Weakly positive/equivocal when tested as an aqueous suspension: see text and Supplementary Material.
[4]; listed as N-nitroso-folic acid
  Ames response when tested as an aqueous suspension: equivocal or weakly positive

## CN1CCN(N=O)CC1 [SM-4, 1-Methyl-4-nitrosopiperazine]
Ames tester strains
  Ames response (all S9-mediated except where noted): Positive
Ames tester strains; ref Sabadie et al., 1980
  Ames response with human liver S9: Ames positive with human liver S9
[7]
  CPCA Potency Category (PC): PC3
Drosophila; ref Nix et al., 1980
  Mutagenicity in Drosophila: Mutagenic in yeast, Drosophila, V79 cells, host-mediated assay
Drosophila
  Recombination in Drosophila: recombinogen in Drosophila
yeast; only summary results provided, ref Larimer et al., 1980
  Direct-acting mutagenicity in yeast: does not appear to be a direct-acting mutagen
yeast; [16]
  Mutagenicity/genotoxicity in yeast: Mutagenic in yeast, Drosophila, V79 cells, host-mediated assay
[10]; [17]
  Mutagenicity/genotoxicity in mammalian cells in vitro: Mutagenic in yeast, Drosophila, V79 cells, host-mediated assay
[10]; only summary results provided, ref Kuroki et al., 1977
  Direct-acting mutagenicity in V79 cells: does not appear to be a direct-acting mutagen
[3]
  Effectiveness of time of preincubation for most effective S9: 60min = 30min
[3]; [18]
  S9-mediated mutagenicity in TA100: strong S9-mediated mutagen
[3]; [19]
  S9-mediated mutagenicity in TA100: strongly positive
[9]
  AI limit: 400 ng/day
[4]
  Direct-acting mutagenicity in TA1535: a Equivocal direct-acting mutagen in TA1535.
[4]; [18]
  Direct-acting mutagenicity in TA1535: weakly positive direct-acting mutagen in two of four assays
  S9-mediated mutagenicity in TA1535: strong S9-mediated mutagen
[4]; [19]
  Direct-acting mutagenicity in TA1535: classified as ‘equivocal’ as a direct-acting mutagen
  S9-mediated mutagenicity in TA1535: strongly positive
[4]; strain TA1535
  Effectiveness of time of preincubation for most effective S9: 60min = 30min
[11]
  Specificity for G:C or A:T target tester strains: positive only in G:C detecting strains
E. coli WU3610
  Mutagenicity in E. coli WU3610: not mutagenic in E. coli WU3610

## Fc1ccc([C@@H]2CCNC[C@H]2COc2ccc3c(c2)OCO3)cc1 [Paroxetine]
[5]
  Genotoxicity under nitrosating conditions: Paroxetine genotoxic under nitrosating conditions ([Ozhan and Alpertunga, 2003])

## CN(C)N=O [SM-1, N,N-Dimethylnitrous amide]
Ames tester strains
  Ames response (all S9-mediated except where noted): Positive; preincubation more sensitive
[12]
  Mutagenicity in host-mediated assay: Mutagenic
Drosophila
  Recombination in Drosophila: recombinogen in Drosophila
[1]
  Effectiveness of time of preincubation for most effective S9: 60min = 30min
[2]
  IARC classification: Group 2A
[10]; [17]
  Mutagenicity/genotoxicity in mammalian cells in vitro: mutagenic/genotoxic in CHO, V79, L5178Y/Tk^+/−, HepaRG cells
[13]
  Mutagenicity in TGR assay: Mutagenic in mouse and rat TGR
[3]
  Effectiveness of time of preincubation for most effective S9: 60min >30min
[9]
  AI limit: 96 ng/day
[4]; strain TA1535
  Effectiveness of time of preincubation for most effective S9: 60min >30min
[11]; 30 min vs 60 min, over all strains, listed as NDMA
  Effect of length of preincubation on positive responses: benefited from a preincubation of 60 min compared with 30 min

## CN(CCCC(=O)O)N=O [SM-7, 4-[Methyl(nitroso)amino] butanoic acid]
[7]
  CPCA Potency Category (PC): PC4
yeast; [16]
  Mutagenicity/genotoxicity in yeast: Mutagenic/genotoxic in yeast, TK6, HepaRG cells ([Mehta and Von Borstel, 1984]; [Li et al., 2022]; [Seo et al., 2023])
[10]; [17]
  Mutagenicity/genotoxicity in mammalian cells in vitro: Mutagenic/genotoxic in yeast, TK6, HepaRG cells ([Mehta and Von Borstel, 1984]; [Li et al., 2022]; [Seo et al., 2023])
[9]
  AI limit: 1500 ng/day

## CCN(CC)N=O [SM-2, N,N-Diethylnitrous amide]
Ames tester strains
  Ames response (all S9-mediated except where noted): Positive; preincubation more sensitive
[12]
  Mutagenicity in host-mediated assay: Mutagenic
Drosophila
  Recombination in Drosophila: recombinogen in Drosophila
[10]; [17]
  Mutagenicity/genotoxicity in mammalian cells in vitro: mutagenic/genotoxic in CHO, L5178Y/Tk^+/−, V79, TK6, HepaRG cells
[13]
  Mutagenicity in TGR assay: Mutagenic in rat and mouse TGR, error-corrected sequencing
[9]
  AI limit: 26.5 ng/day

## CN(N=O)c1ccccc1 [SM-6, N-Methyl-N-phenylnitrous amide]
[14]; any activation condition and preincubation time, listed as N-nitroso-methylphenylamine
  Mutagenic response in TA1537: positive
[14]; strain TA1537, 30 vs 60 min
  Effectiveness of time of preincubation for most effective S9: 60min = 30min
[14]; strain TA1537, H = hamster liver S9, R = rat liver S9
  Effectiveness of hamster vs. rat S9s for each positive strain: H only
[1]; [20]
  Mutagenic response in WP2 uvrA (pKM101): positive
[1]; listed as NMPA
  Mutagenic response in WP2 uvrA (pKM101): mutagenic
[1]
  Effectiveness of time of preincubation for most effective S9: 60min = 30min
yeast
  Mutagenicity/genotoxicity in yeast: Mutagenic/genotoxic in yeast, TK6, HepaRG cells
[10]
  Mutagenicity/genotoxicity in mammalian cells in vitro: Mutagenic/genotoxic in yeast, TK6, HepaRG cells
[4]; [20]
  Mutagenic response in TA1535: negative
[4]; listed as NMPA
  Mutagenic response in TA1535: not positive

## CCOC(CN(CC(OCC)OCC)N=O)OCC [SM-12, N,N-Bis(2,2-diethoxyethyl)nitrous amide]
[15]
  Carcinogenicity in rats: noncarcinogenic in rats
[4]
  Mutagenic response in TA1535: only positive strain
[4]; strain TA1535, 10% vs 30% S9 in the S9 mix
  More effective %S9 in S9 mix of more effective S9 (H or R): 30% only
[4]; strain TA1535
  Effectiveness of time of preincubation for most effective S9: 60min = 30min
[4]; strain TA1535, H = hamster liver S9, R = rat liver S9
  Effectiveness of hamster vs. rat S9s for each positive strain: H only
[11]
  Specificity for G:C or A:T target tester strains: positive only in G:C detecting strains

## O=NN(c1ccccc1)c1ccccc1 [SM-11, N,N-Diphenylnitrous amide]
[2]
  IARC classification: Group 3
